Measurements: patent US20220125839A1, “COMBINATION OF T-CELL THERAPY AND TARGETED THERAPY FOR TREATING THERAPY-RESISTANT MELANOMA WITH MUTATIONS IN THE BRAF GENE” (H. LEE MOFFITT CANCER CENTER AND RESEARCH INSTITUTE, INC., priority 2019, published 2022)

How the values were obtained:
lung cancer and lymphoma = conditions: models of lung cancer and lymphoma; cited from earlier work
[1] = test system: BRAFV600E mutant melanoma; conditions: patients with BRAFV600E mutant melanoma; cited from earlier work
M6PR = M6PR expression by flow cytometry in different melanoma cell lines treated with dabrafenib; format: cell-based, human; conditions: 16 hr, 1 μM or 5 μM
Procedure: FIGS. 4A and 4B show WM35 cells resistant to PLX4720. […] Cell viability was measured in experimental replicates in MTT test after 2 and 4 days of treatment. Mean and SD are shown. FIG. 4B show the effect of Dabrafenib on the expression of M6PR. Indicated cells were treated with dabrafenib for 16 hr (1 μM or 5 μM) and M6PR expression was evaluated by flow cytometry. Mean and SD are shown. P values were calculated using two-sided Student's t-test; *-p<0.05; ** p<0.01; ***-p<0.001; ****-p<0.0001 from DMSO treated controls.
M6PR expression levels were detected by flow cytometry. Cells were incubated with Aqua dead cell staining kit (Thermo Fischer Scientific; Cat. no. L34957) for 15 min at 4° C., followed by staining with Alexa Fluor 647-conjugated mouse antibody specific for human IGF2R/M6PR (BD Biosciences; Cat. no. 565105; clone no. MEM-238) or its isotype (BD Biosciences; Cat. no. 557732; clone no. MOPC-21) at 4° C. for 20 minutes. Cells were fixed using 1% paraformaldehyde for 20 minutes at 4° C. before running them on LSR14. Data was analyzed by FlowJo software (Tree Star).

Compound: CC(=O)O[C@H]1C(=O)[C@@]2(C)[C@H]([C@H](OC(=O)c3ccccc3)[C@]3(O)C[C@H](OC(=O)[C@H](O)[C@@H](NC(=O)c4ccccc4)c4ccccc4)C(C)=C1C3(C)C)[C@]1(OC(C)=O)CO[C@@H]1C[C@@H]2O [paclitaxel]
- effect on anti-tumor effect of immunotherapy (lung cancer and lymphoma): potentiate the anti-tumor effect of immunotherapy via up-regulation of M6PR on the tumor cell surface

Compound: COc1cccc2c1C(=O)c1c(O)c3c(c(O)c1C2=O)C[C@@](O)(C(=O)CO)C[C@@H]3O[C@H]1C[C@H](N)[C@H](O)[C@H](C)O1 [doxorubicin]
- effect on anti-tumor effect of immunotherapy (lung cancer and lymphoma): potentiate the anti-tumor effect of immunotherapy via up-regulation of M6PR on the tumor cell surface

Compound: CC(C)(C)c1nc(-c2cccc(NS(=O)(=O)c3c(F)cccc3F)c2F)c(-c2ccnc(N)n2)s1 [dabrafenib]
- clinical responses [1]: impressive clinical responses
- expression of M6PR (M6PR): substantial up-regulation of the receptor

Compound: N.N.[Cl][Pt][Cl] [cisplatin]
- effect on anti-tumor effect of immunotherapy (lung cancer and lymphoma): potentiate the anti-tumor effect of immunotherapy via up-regulation of M6PR on the tumor cell surface
